# Test results taken from US5721219A, “N-alkyl-2-substituted ATP analogues and administration to inhibit platelet aggregation” (Astra Pharmaceuticals Ltd., priority 1993, dated 1998).
# Structures can show the parent of a compound that is named as a salt.
# How the values were obtained:
# guinea pig taenia coli = conditions: Maguire and Satchell 1979; cited from earlier work
# platelet aggregation = conditions: Cusack and Hourani, Nucleosides & Nucleotides 1991; cited from earlier work
# P2T receptor = biological target: T1, P2T receptor (Homo sapiens, UniProt Q9H244); assay: P2T receptor agonist/antagonist activity in washed human platelets (inhibition of ADP-induced aggregation); type: cell-based; conditions: submaximal ADP, 15 min incubation with test compound, 8-SPT present, % inhibition of control ADP response giving approximate IC50, read-out: pIC50 (negative logarithm of the antagonist potency) (converted)
# T1 construct: activity in washed human platelets; endogenous in cells; host or cells: washed human platelets from venous blood of donors
# Protocol: Quantification of P2T receptor aganoist/antagonist activity in washed human platelets Human venous blood (100 ml) was divided equally between 3 tubes, each containing 3.2% trisodium citrate (4 ml) as anti-coagulant. The tubes were centrifuged for 15 min at 240G to obtain a platelet-rich plasma (PRP) to which 300 ng.ml^-1 prostacyclin (PGI2, 3 μl.ml^-1 PRP of 1/10 diln. in saline from stock 1 mg/ml^-1 in ethanol) was added to stabilize the platelets during the washing procedure. Red cell free PRP was obtained by centrifugation for 10 min at 125G followed by further centrifugation for 15 min at 640G. The supernatant was discarded and the platelet pellet resuspended in modified, calcium free, Tyrode solution [(10 ml) CFT, composition: NaCl 137 mM (8 g.l^-1), NaHCO3 11.9 mM (1 g.l^-1), NaH2 PO, 0.38 mM (0.06 g.l^-1), KCl 2.86 mM (1 ml of 20% soln.l^-1), MgCl2 1.05 mM (1 ml of 10% soln.l^-1), dextrose 5.55 mM (1 g.l^-1)], gassed with 95% O2 /5% CO2 and maintained at 37°. Following addition of a further 300 ng.ml^-1PGI2, the pooled suspension was centrifuged once more for 15 min at 640G. The supernatant was discarded and the platelets resuspended initially in 10 ml CFT with further CFT added to adjust the final platelet count to 2×10^5.μl^-1. This final suspension was stored in a 60 ml syringe at 3° with air excluded.
# To allow recovery from PGI2 -inhibition of normal function, platelets were used in aggregation studies no sooner than 2 hours after final resuspension. […]
# A concentration of ADP producing a just submaximal response was selected by constructing a concentration/response curve over the range 10-300 μM. the appropriate solution of ADP was added to the aggregation cuvette in a volume of 10 μl, 20 min after starting the aggregation trace. Aggregation responses were measured using the maximum rate of change in light transmission, an index given by the PAP4 slope-reader. […]
# T1 sequence (Q9H244 whole entry): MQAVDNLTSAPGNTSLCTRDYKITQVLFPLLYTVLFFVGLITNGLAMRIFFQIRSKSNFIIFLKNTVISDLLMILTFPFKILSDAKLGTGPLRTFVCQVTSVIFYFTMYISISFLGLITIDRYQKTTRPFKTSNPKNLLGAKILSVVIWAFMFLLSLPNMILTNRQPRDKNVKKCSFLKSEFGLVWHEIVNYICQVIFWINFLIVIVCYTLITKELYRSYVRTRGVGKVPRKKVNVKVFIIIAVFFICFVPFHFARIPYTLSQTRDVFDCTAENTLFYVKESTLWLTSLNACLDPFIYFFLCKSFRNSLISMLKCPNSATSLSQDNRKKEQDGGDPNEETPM
SMILES,IC50 (P2T receptor),also measured
"Nc1nc(Cl)nc2c1ncn2[C@@H]1O[C@H](COP(=O)(O)OP(=O)(O)CP(=O)(O)O)[C@@H](O)[C@H]1O [2-chloro-5'-adenylic acid, monoanhydride with methylenebisphosphonic acid]",–,inhibition of guinea pig taenia coli (guinea pig taenia coli): inhibition
"CSc1nc(N)c2ncn([C@@H]3O[C@H](COP(=O)(O)OP(=O)(O)CP(=O)(O)O)[C@@H](O)[C@H]3O)c2n1 [2-methylthio-5'-adenylic acid, monoanhydride with methylenebisphosphonic acid]",–,inhibition of ADP-α-S induced platelet aggregation (platelet aggregation): inhibits
"CCCSc1nc(NCC)c2ncn([C@@H]3O[C@H](COP(=O)(O)OP(=O)(O)C(Cl)(Cl)P(=O)(O)O)[C@@H](O)[C@H]3O)c2n1 [Example 1, N-Ethyl-2-(propylthio)-5'-adenylic acid, monoanhydride with dichloromethylenebisphosphonic acid, tetrasodium salt]",0.912 nM,–
"CCNc1nc(SCCC(F)(F)F)nc2c1ncn2[C@@H]1O[C@H](COP(=O)(O)OP(=O)(O)C(Cl)(Cl)P(=O)(O)O)[C@@H](O)[C@H]1O [Example 5, N-Ethyl-2-[(3,3,3-trifluoropropyl)thio]-5'-adenylic acid, monoanhydride with dichloromethylenebisphosphonic acid, trisodium salt]",2.09 nM,–
"O=P(O)(OC[C@H]1O[C@@H](n2cnc3c(NCC(F)(F)F)nc(SCCC(F)(F)F)nc32)[C@H](O)[C@@H]1O)OP(=O)(O)C(Cl)(Cl)P(=O)(O)O [Example 6a, N-(2,2,2-Trifluoroethyl)-2-[(3,3,3-trifluoropropyl)thio]-5'-adenylic acid, monoanhydride with dichloromethylenebisphosphonic acid, triammonium salt]",0.724 nM,–
